From ChEMBL document CHEMBL4020791, “Synthesis and anti-proliferative activity of a small library of 7-substituted 5H-pyrrole [1,2-a][3,1]benzoxazin-5-one derivatives” (Bioorg Med Chem Lett, 2017)
The source made the active and inactive calls. The rule behind the calls is not given here.

How the values were obtained:
MDA-MB-231 [1] = test: cells; settings: Homo sapiens, MDA-MB-231, 72 h
Description: Cytotoxicity against human MDA-MB-231 cells assessed as reduction in cell viability after 72 hrs by MTT assay

MCF7 [2] = test: Cytotoxicity against human MCF7 cells assessed as reduction in cell viability after 72 hrs by MTT assay; type: functional, cell-based; settings: MCF7, 72 h
SK-BR-3 [3] = test: Cytotoxicity against human SKBR3 cells assessed as reduction in cell viability after 72 hrs by MTT assay; type: functional, cell-based; settings: SK-BR-3, 72 h
MCF-10A = test: Cytotoxicity against human MCF10A after 72 hrs by MTT assay; type: cell-based
MCF7 [4] = test: Increase in p53 expression in human MCF7 cells at 1 to 10 uM after 24 hrs by immunoblot method; type: functional, cell-based
MCF7 [5] = test: Cell cycle arrest in human MCF7 cells assessed as accumulation at G2/M phase at 5 uM after 24 hrs by propidium iodide-staining based FACS analysis (reference value: 6.3%); type: functional
MCF7 [6] = test: Change in cyclin D1 levels in human MCF7 cells at 1 to 10 uM after 24 hrs by Western blot analysis; type: functional, cell-based
MCF7 [7] = test: Induction of apoptosis in human MCF7 cells assessed as increase in cleaved PARP-1 expression at 1 to 10 uM after 24 hrs by immunoblot method; type: functional, cell-based
MCF7 [8] = test: Cell cycle arrest in human MCF7 cells assessed as accumulation at S phase after 24 hrs by propidium iodide-staining based FACS analysis; type: functional
MCF7 [9] = test: Cell cycle arrest in human MCF7 cells assessed as accumulation at S phase at 5 uM after 24 hrs by propidium iodide-staining based FACS analysis (reference value: 22.6%); type: functional
MCF7 [10] = test: Cell cycle arrest in human MCF7 cells assessed as accumulation at G0/G1 phase at 10 uM after 24 hrs by propidium iodide-staining based FACS analysis (reference value: 71.1%); type: functional
MCF7 [11] = test: Cell cycle arrest in human MCF7 cells assessed as accumulation at S phase at 10 uM after 24 hrs by propidium iodide-staining based FACS analysis (reference value: 22.6%); type: functional
MCF7 [12] = test: Cell cycle arrest in human MCF7 cells assessed as accumulation at G0/G1 phase at 5 uM after 24 hrs by propidium iodide-staining based FACS analysis (reference value: 71.1%); type: functional
MCF7 [13] = test: Cell cycle arrest in human MCF7 cells assessed as accumulation at G2/M phase at 10 uM after 24 hrs by propidium iodide-staining based FACS analysis (reference value: 6.3%); type: functional
MCF7 [14] = test: Increase in p21waf1/cip1 protein expression in human MCF7 cells at 1 to 10 uM after 24 hrs by immunoblot method; type: functional, cell-based
SK-BR-3 [15] = test: Antiproliferative activity against human SKBR3 cells at 50 uM after 72 hrs by MTT assay; type: functional, cell-based
MDA-MB-231 [16] = test: Antiproliferative activity against human MDA-MB-231 cells at 50 uM after 72 hrs by MTT assay; type: functional, cell-based
MCF7 [17] = test: Antiproliferative activity against human MCF7 cells at 50 uM after 72 hrs by MTT assay; type: functional, cell-based

COC(=O)c1ccc(-c2ccc3c(c2)c(=O)oc2cccn23)cc1
IC50 (MDA-MB-231 [1]): 65 µM | IC50 (MCF7 [2]): 48.7 µM | IC50 (SK-BR-3 [3]): 59.3 µM | IC50 (MCF-10A): 162 µM

O=c1oc2cccn2c2ccc(-c3ccccc3)cc12
IC50 (MDA-MB-231 [1]): 93.5 µM | IC50 (MCF7 [2]): 66.5 µM | IC50 (SK-BR-3 [3]): 61 µM | IC50 (MCF-10A): 180 µM

O=c1oc2cccn2c2ccc(-c3ccc(-c4ccccc4)cc3)cc12
IC50 (MDA-MB-231 [1]): 10 µM | Activity (MCF7 [4]): Active | Activity (MCF7 [5]): 7.8% | Activity (MCF7 [6]): Active | IC50 (MCF7 [2]): 9.03 µM | Activity (MCF7 [7]): Active | IC50 (SK-BR-3 [3]): 9.2 µM | Activity (MCF7 [8]): Dose-dependent effect | Activity (MCF7 [9]): 15.6% | Activity (MCF7 [10]): 72.8% | Activity (MCF7 [11]): 18.8% | IC50 (MCF-10A): > 250 µM | Activity (MCF7 [12]): 76.6% | Activity (MCF7 [13]): 8.4% | Activity (MCF7 [14]): Active

O=c1oc2cccn2c2ccc(-c3cccnc3O)cc12
IC50 (MDA-MB-231 [1]): 78.9 µM | IC50 (MCF7 [2]): 60.9 µM | IC50 (SK-BR-3 [3]): 72 µM | IC50 (MCF-10A): 154 µM

O=c1oc2cccn2c2ncccc12
Activity (SK-BR-3 [15]): Active | Activity (MDA-MB-231 [16]): Active | Activity (MCF7 [17]): Active

O=c1oc2cccn2c2cc3ccccc3cc12
Activity (SK-BR-3 [15]): Active | Activity (MDA-MB-231 [16]): Active | Activity (MCF7 [17]): Active

O=c1oc2cccn2c2ccc(-c3ccc(C(F)(F)F)nc3)cc12
IC50 (MDA-MB-231 [1]): 73 µM | IC50 (MCF7 [2]): 43.1 µM | IC50 (SK-BR-3 [3]): 46.8 µM | IC50 (MCF-10A): 155 µM

O=c1oc2cccn2c2ccccc12
Activity (SK-BR-3 [15]): Active | Activity (MDA-MB-231 [16]): Active | Activity (MCF7 [17]): Active

COc1cccc2c1C(=O)c1c(O)c3c(c(O)c1C2=O)C[C@@](O)(C(=O)CO)C[C@@H]3O[C@H]1C[C@H](N)[C@H](O)[C@H](C)O1 [DOXORUBICIN]
IC50 (MDA-MB-231 [1]): 10 µM | IC50 (SK-BR-3 [3]): 8.48 µM | IC50 (MCF-10A): 12.5 µM

O=c1oc2cccn2c2ccc(Br)cc12
IC50 (MDA-MB-231 [1]): 217 µM | Activity (SK-BR-3 [15]): Active | IC50 (MCF7 [2]): 123 µM | IC50 (SK-BR-3 [3]): 126 µM | Activity (MDA-MB-231 [16]): Active | Activity (MCF7 [17]): Active | IC50 (MCF-10A): 262 µM

O=c1oc2cccn2c2ccc(-c3ccc(O)cc3)cc12
IC50 (MDA-MB-231 [1]): 31 µM | IC50 (MCF7 [2]): 18.5 µM | IC50 (SK-BR-3 [3]): 27 µM | IC50 (MCF-10A): 79.8 µM
